According to patent US11613729B2, “Cortical spheroids and methods of making the same” (The Florida State University Research Foundation, Inc., priority 2019, dated 2023):

Legend:
hybrid spheroids [1] = experiment: Neurite outgrowth of replated hybrid spheroids; format: cell-based, human; settings: ROCKi Y27632 10 μM, day 21 spheroids replated three days
Procedure: Effects of ROCKi Y27632, Geltrex, and HA on neurogenesis of hybrid spheroids were depicted (not shown). Day 21 hybrid spheroids embedded in Geltrex (5%) or treated with ROCKi Y27632 (10 μM) were replated on 1% Geltrex-coated surface for three days. Neurite and axonal extension indicated by β-tubulin III expression was shown. Phase contrast images of axon outgrowth of day 21 spheroids were produced (not shown). Fluorescent images for day 39 spheroids: neuron marker β-tubulin III, motor neuron progenitor marker Islet-1, GABAergic neuron marker (GABA), glutamatergic neuron marker (Glutamate), cortical neuron marker (TBR1), pre-synaptic marker synapsin I and post-synaptic marker PSD95 were produced (not shown).

hybrid spheroids [2] = experiment: MTT assay of hybrid spheroids; format: cell-based, human
Procedure: First, an MTT assay was conducted. The spheroids of Examples 2 and 3 were incubated with 5 mg/mL 3-(4,5-Dimethylthiazol-2-yl)-2,5-diphenyltetrazolium bromide (MTT, Sigma) solution at day 7 after three cell types were co-cultured unless otherwise noted. The absorbance of the samples was measured at 500 nm using a microplate reader (Biorad, Richmond, Calif.).
The hMSCs were labeled with CellTracker Green.

iNPC-iEC-MSC spheroids = experiment: Spheroid fusion / aggregation kinetics (squared aspect ratio); format: cell-based, human
Procedure: To form hHA hydrogels, 1% (w/v) HA from Sigma Aldrich solution was reacted with a 5-fold molar excess amount of methacrylic anhydride (MA) from Sigma Aldrich for 15 h in the dark at 4° C. The final product was collected by precipitating the solution in 5-fold volume of ethanol twice, and was then purified by dialysis using a membrane (3.5 kDa Mw cut-off, Thermofisher) to remove unreacted reagents. The purified MA-HA was filtered, lyophilized, and stored at −20° C. until further use. Next, ^1H-NMR spectroscopy (a Bruker 500M spectrometer at […]) was used to analyze and the degree of methacrylation. For culture experiments, day 14 iEC spheroids were transferred to the wells containing day 14 iNPC spheroids, at the same time hMSCs were added into the wells at different ratios (iNPC:iEC:MSC=4:2:0, 3:2:1 2:2:2, and 1:2:3). […] The morphology of hybrid spheroids were captured over 7 days by a phase contrast microscope.
Images of spheroid fusion were captured over time by a phase contrast microscope. The captured images were converted to binary images using ImageJ software (rsb.info.nih.gov/ij) and analyzed with the “particle analysis tool”. Through particle analysis, the squared aspect ratio of contact length between the two aggregates over maximum diameter (FIG. 6A) was determined to indicate the aggregate fusion process. The inter-sphere angle was measured as the intersecting angle between the tangent lines of two contacted spheroids to the touch point. For some experiments, the number of branching points and the total tube length in the area were evaluated.

Procedure for hMSCs in fused spheroids: The hMSCs were labeled with CellTracker Green. The hybrid (iNPC-iEC-MSC) spheroids were cultured in neural differentiation media (control) or media containing the CXCR4 inhibitor AMD3100 (100 nM, Sigma) for additional 10 days [53]. The fusion kinetics and cell localization were captured over time.

Row | SMILES | neurite outgrowth (hybrid spheroids [1]) | MTT activity (hybrid spheroids [2]; 20 μM ROCKi Y27632, 7 days of tri-culture, vs no treatment) | aspect ratio (iNPC-iEC-MSC spheroids; 20 μM or 40 μM ROCKi, plateau over 7 days) | tendency of two spheroids to fuse (iNPC-iEC-MSC spheroids; high concentration (20 μM or 40 μM)) | integration of MSCs into iNPC-iEC spheroids (iNPC-iEC-MSC spheroids; low concentration of ROCKi (10 μM)) | area occupied by hMSCs (hMSCs in fused spheroids; AMD3100 100 nM vs control groups) | aspect ratio of hMSCs (area occupied by hMSCs to total area of fused spheroids) (hMSCs in fused spheroids; AMD3100 100 nM, day 4 to day 8) | MTT activity (cell proliferation) (hybrid spheroids [2]; AMD3100 100 nM, day 24 hybrid spheroids)
1 | C[C@@H](N)[C@H]1CC[C@H](C(=O)Nc2ccncc2)CC1 [Y27632] | enhanced | increased MTT activity | 0.5-0.7 | disrupted | did not impact |  |  | 
2 | c1cc(CN2CCCNCCNCCCNCC2)ccc1CN1CCCNCCNCCCNCC1 [AMD3100] |  |  |  |  |  | smaller than the control groups | decreased from day 4 to day 8 | little influence on cell proliferation
